This is an account of results in patent US11071721B2, “Bicyclic amide compounds and methods of use thereof” (Genentech, Inc., priority 2016, dated 2021).

In general, pKi refers to the Ki on a negative log10 scale, so that one unit is a factor of ten. Higher therefore signals a small Ki.

pKi: −log10 of the molar value.

Chain of human RIP1 kinase domain (2-375) (Q13546 2-375): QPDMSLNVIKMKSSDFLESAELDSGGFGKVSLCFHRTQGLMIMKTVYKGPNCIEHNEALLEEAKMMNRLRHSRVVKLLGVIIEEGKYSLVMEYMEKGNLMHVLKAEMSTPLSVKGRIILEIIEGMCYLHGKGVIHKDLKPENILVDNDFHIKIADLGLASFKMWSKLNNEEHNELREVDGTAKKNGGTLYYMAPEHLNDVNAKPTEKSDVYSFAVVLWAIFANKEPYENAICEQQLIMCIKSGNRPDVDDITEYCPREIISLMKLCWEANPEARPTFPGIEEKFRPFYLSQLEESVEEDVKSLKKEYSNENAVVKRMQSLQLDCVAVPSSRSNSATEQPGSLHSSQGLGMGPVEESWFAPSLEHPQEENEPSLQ

This assay addresses human RIP1 kinase domain (2-375) (Homo sapiens (Human), UniProt Q13546). The assay is described as follows: RIP1 kinase inhibition assay (Transcreener ADP biochemical enzyme assay). The note with it: Ki app (Morrison tight-binding fit); 50 nM enzyme, 50 uM ATP, 2 hours incubation, fluorescence polarization. The protocol: RIP1 Kinase Inhibition Assays (Biochemical Assay):
The compounds of the present invention were tested for their capacity to inhibit RIP K activity as described below.
Enzyme assay: The ability of the receptor interacting protein kinase (RIPK1) to catalyze the hydrolysis of adenosine-5′-triphosphate (ATP) is monitored using the Transcreener ADP (adenosine-5′-diphosphate) assay (BellBrook Labs). Purified human RIP1 kinase domain (2-375) (50 nM) derived from a baculovirus-infected insect cell expression system is incubated with test compounds for 2 hours in 50 mM Hepes buffer (pH 7.5) containing 30 mM MgCl2, 1 mM dithiothreitol, 50 uM ATP, 0.002% Brij-35, and 0.5% dimethyl sulfoxide (DMSO). Reactions are quenched by the addition of 1× Bell Brooks Stop buffer B (20 mM Hepes (ph7.5), 40 mM ethylenediaminetetraacetic acid and 0.02% Brij-35) containing an additional 12 mM EDTA and 55 ug/mL ADP2 antibody and 4 nM ADP-AlexaFluor® 633 tracer. The tracer bound to the antibody is displaced by the ADP generated during the RIP1K reaction, which causes a decrease in fluorescence polarization that is measured by laser excitation at 633 nm with a FP microplate reader M1000. Fractional activity was plotted against test article concentration. Using Genedata Screener software (Genedata; Basel, Switzerland), the data were fit to the tight-binding apparent inhibition constant (Ki^app) Morrison equation [Williams, J. W. and Morrison, J. F. (1979) The kinetics of reversible tight-binding inhibition. Methods Enzymol 63: 437-67]. The following equation was used to calculate fractional activity and Ki^app:
[formula] where [E]T and [I]T are the total concentrations of active enzyme and test article, respectively.
The compound `O=C(c1nc2n(n1)C(c1ccccc1)CC2(F)F)N1CC(F)(F)C1` (racemic) [Example 1, (3,3-difluoroazetidin-1-yl)-(7,7-difluoro-5-phenyl-5,6-dihydropyrrolo[1,2-b][1,2,4]triazol-2-yl)methanone] gave a negative logarithm of the Ki (pKi) of 7.24.

With `O=C(c1nc2n(n1)[C@@H](c1ccccc1)C[C@@H]2F)N1CC(F)(F)C1` (racemic) [Example 2, (3,3-difluoroazetidin-1-yl)-[rac-(5R,7S)-7-fluoro-5-phenyl-6,7-dihydro-5H-pyrrolo[1,2-b][1,2,4]triazol-2-yl]methanone], the pKi was 6.32.

On to `O=C(c1nc2n(n1)CCC2c1ccccc1)N1CC(F)(F)C1` (racemic) [Example 4, (3,3-difluoroazetidin-1-yl)-(7-phenyl-6,7-dihydro-5H-pyrrolo[1,2-b][1,2,4]triazol-2-yl)methanone], for which the negative logarithm of the Ki (pKi) was 6.69.

The compound `O=C(c1nc2n(n1)CCOC2c1ccccc1)N1CC(F)(F)C1` (racemic) [Example 5, (3,3-difluoroazetidin-1-yl)-(8-phenyl-6,8-dihydro-5H-[1,2,4]triazolo[5,1-c][1,4]oxazin-2-yl)methanone] had a pKi of 6.11.

`O=C(c1nc2n(n1)CCOC2c1ccccc1F)N1CC(F)(F)C1` (racemic) [Example 6, (3,3-difluoroazetidin-1-yl)-[8-(2-fluorophenyl)-6,8-dihydro-5H-[1,2,4]triazolo[5,1-c][1,4]oxazin-2-yl]methanone] showed a negative-log Ki (pKi) of 6.14.

`CC(F)(F)C1CCc2nc(C(=O)N3CC(F)(F)C3)nn21` (racemic) [Example 8, (3,3-difluoroazetidin-1-yl)-[5-(1,1-difluoroethyl)-6,7-dihydro-5H-pyrrolo[1,2-b][1,2,4]triazol-2-yl]methanone] showed a pKi of 5.06.

Compound `O=C(c1cc2n(n1)CCOC2c1ccccc1)N1CC(F)(F)C1` (racemic) [Example 13, (3,3-difluoroazetidin-1-yl)-(4-phenyl-6,7-dihydro-4H-pyrazolo[5,1-c][1,4]oxazin-2-yl)methanone] showed a negative logarithm of the Ki (pKi) of 5.95.

Regarding `O=C(c1nc2n(n1)C(c1ccccc1)CC2)N1CC(F)(F)C1` (racemic) [Example 16, (3,3-difluoroazetidin-1-yl)-(5-phenyl-6,7-dihydro-H-pyrrolo[1,2-b][1,2,4]triazol-2-yl)methanone], the negative logarithm of the Ki (pKi) was 6.98.

The compound `COC1CN(C(=O)c2nc3n(n2)C(c2ccccc2)CC3)C1` (racemic) [Example 17, (3-methoxyazetidin-1-yl)-(5-phenyl-6,7-dihydro-5H-pyrrolo[1,2-b][1,2,4]triazol-2-yl)methanone] showed a pKi of 5.86.

Take `O=C(c1nc2n(n1)C(c1ccccc1)CC2)N1CC(F)C1` (racemic) [Example 18, (3-fluoroazetidin-1-yl)-(5-phenyl-6,7-dihydro-5H-pyrrolo[1,2-b][1,2,4]triazol-2-yl)methanone]: the pKi was 6.46.

`CC1CN(C(=O)c2nc3n(n2)C(c2ccccc2)CC3)C1` (racemic) [Example 19, (3-methylazetidin-1-yl)-(5-phenyl-6,7-dihydro-5H-pyrrolo[1,2-b][1,2,4]triazol-2-yl)methanone] gave a pKi of 6.33.

In turn, `CC1(F)CN(C(=O)c2nc3n(n2)C(c2ccccc2)CC3)C1` (racemic) [Example 20, (3-fluoro-3-methyl-azetidin-1-yl)-(5-phenyl-6,7-dihydro-5H-pyrrolo[1,2-b][1,2,4]triazol-2-yl)methanone] gave a pKi of 6.57.

`CCC1CN(C(=O)c2nc3n(n2)C(c2ccccc2)CC3)C1` (racemic) [Example 21, (3-ethylazetidin-1-yl)-(5-phenyl-6,7-dihydro-5H-pyrrolo[1,2-b][1,2,4]triazol-2-yl)methanone] gave a pKi of 5.87.

`O=C(c1nc2n(n1)C(c1ccccc1F)CC2)N1CCC1` (racemic) [Example 22, Azetidin-1-yl-[5-(2-fluorophenyl)-6,7-dihydro-5H-pyrrolo[1,2-b][1,2,4]triazol-2-yl]methanone] showed a negative-log Ki (pKi) of 6.29.

In turn, `O=C(c1nc2n(n1)C(c1ccccc1F)CC2)N1CC(F)(F)C1` (racemic) [Example 23, (3,3-difluroroazetidin-1-yl)-[5-(2-fluorophenyl)-6,7-dihydro-5H-pyrrolo[1,2-b][1,2,4]triazol-2-yl]methanone] showed a negative logarithm of the Ki (pKi) of 7.36.

Consider `O=C(c1nc2n(n1)C(c1ccccc1F)CC2)N1CC(F)C1` (racemic) [Example 24, (3-fluoroazetidin-1-yl)-[5-(2-fluorophenyl)-6,7-dihydro-5H-pyrrolo[1,2-b][1,2,4]triazol-2-yl]methanone], for which the negative-log Ki (pKi) is 6.71.

As for `CNC(=O)c1nc2n(n1)C(c1ccccc1)CC2` (racemic) [Example 25, N-methyl-5-phenyl-6,7-dihydro-5H-pyrrolo[1,2-b][1,2,4]triazole-2-carboxamide], the negative logarithm of the Ki (pKi) was 5.44.

`O=C(c1nc2n(n1)C(c1ccccc1)CC2)N1CCC1` (racemic) [Example 26, azetidin-1-yl-(5-phenyl-6,7-dihydro-5H-pyrrolo[1,2-b][1.2.4]triazol-2-yl)methanone] showed a pKi of 6.28.

The compound `CN(C)C(=O)c1nc2n(n1)C(c1ccccc1)CC2` (racemic) [Example 27, N,N-dimethyl-5-phenyl-6,7-dihydro-5H-pyrrolo[1,2-b][1,2,4]triazole-2-carboxamide] gave a pKi of 5.66.

`O=C(c1nc2n(n1)C(c1ccccc1)CC2)N1CC2CC1C2` (racemic) [Example 28, 2-azabicyclo[2.1.1]hexan-2-yl-(5-phenyl-6,7-dihydro-5H-pyrrolo[1,2-b][1,2,4]triazol-2-yl)methanone] gave a pKi of 5.05.

Turning to `O=C(c1nc2n(n1)C(c1ccccc1)CC2)N1CCCCC1` (racemic) [Example 29, (5-phenyl-6,7-dihydro-5H-pyrrolo[1,2-b][1,2,4]triazol-2-yl)-(1-piperidyl)methanone], the pKi is 5.27.

As to `O=C(c1nc2n(n1)C(c1ccccc1)CC2)N1CCCC1` (racemic) [Example 30, (5-phenyl-6,7-dihydro-5H-pyrrolo[1,2-b][1,2,4]triazol-2-yl)-pyrrolidin-1-yl-methanone], the pKi was 5.19.

`CN(C)C(=O)c1nc2n(n1)C(c1ccccc1F)CC2` (racemic) [Example 33]: the pKi was 5.85.

As to `O=C(c1nc2n(n1)C(c1ccccc1F)CC2)N1CCCC1` (racemic) [Example 34], the pKi was 5.47.

Turning to `O=C(c1nc2n(n1)[C@H](c1ccccc1)C[C@H]2F)N1CC(F)C1` (racemic) [Example 35], the pKi is 5.89.

The compound `O=C(c1cc2n(n1)CCOC2c1ccccc1F)N1CC(F)(F)C1` (racemic) [Example 37, (3,3-difluoroazetidin-1-yl)-[4-(2-fluorophenyl)-6,7-dihydro-4H-pyrazolo[5,1-c][1,4]oxazin-2-yl]methanone] gave a pKi of 5.85.

In turn, `O=C(c1nc2n(n1)[C@@H](c1ccccc1)C[C@H]2F)N1CC(F)C1` (racemic) [Example 39] gave a negative logarithm of the Ki (pKi) of 7.49.

The compound `CCC(F)(F)C1CCc2nc(C(=O)N3CC(F)(F)C3)nn21` (racemic) [Example 40, (3,3-difluoroazetidin-1-yl)-[5-(1,1-difluoropropyl)-6,7-dihydro-5H-pyrrolo[1,2-b][1,2,4]triazol-2-yl]methanone] had a pKi of 6.04.

Compound `CN(C)C(=O)c1nc2n(n1)CCOC2c1ccccc1` (racemic) [Example 41, N,N-dimethyl-8-phenyl-6,8-dihydro-5H-[1,2,4]triazolo[5,1-c][1,4]oxazine-2-carboxamide] showed a negative-log Ki (pKi) of 5.10.

Take `CN(C)C(=O)c1nc2n(n1)CCOC2c1ccccc1F` (racemic) [Example 43, 8-(2-fluorophenyl)-N,N-dimethyl-6,8-dihydro-5H-[1,2,4]triazolo[5,1-c][1,4]oxazine-2-carboxamide]: the pKi was 5.30.

`CCN(CC)C(=O)c1nc2n(n1)CCOC2c1ccccc1F` (racemic) [Example 44, N,N-diethyl-8-(2-fluorophenyl)-6,8-dihydro-5H-[1,2,4]triazolo[5,1-c][1,4]oxazine-2-carboxamide] showed a pKi of 5.32.

`O=C(c1nc2n(n1)CCOC2c1ccccc1F)N1CC(F)C1` (racemic) [Example 45, (3-fluoroazetidin-1-yl)-[8-(2-fluorophenyl)-6,8-dihydro-5H-[1,2,4]triazolo[5,1-c][1,4]oxazin-2-yl]methanone] had a pKi of 5.64.

The compound `O=C(c1nc2n(n1)C(c1ccccc1)C1CC21)N1CC(F)C1` (racemic) [Example 46] showed a negative-log Ki (pKi) of 6.04.

For the compound `O=C(c1nc2n(n1)C(c1ccccc1)C1CC21)N1CC(F)(F)C1` (racemic) [Example 47], the negative-log Ki (pKi) was 6.71.

For the compound `O=C(c1nc2n(n1)[C@H](C(F)(F)F)CC2)N1CC(F)(F)C1` (racemic) [Example 49, (3,3-difluoroazetidin-1-yl)-[rac-(5S)-5-(trifluoromethyl)-6,7-dihydro-5H-pyrrolo[1,2-b][1,2,4]triazol-2-yl]methanone], the pKi is 5.30.
